Experimental findings from patent publication US20190000983A1, “AN EYE DROP SOLUTION FOR ENHANCED HYALURONIC ACID RETENTION AND DELIVERY” (THE JOHNS HOPKINS UNIVERSITY, priority 2015, published 2019) are described below.

Like-named read-outs stand apart in the source and are kept apart here. Ends that are not written are not given here.

One series deals with conjunctiva tissue. The series can be described thus: HABA assay: screening of biotin-conjugated ocular surface-binding peptides on conjunctival tissue. The settings on record: six peptides of Table 1, biotin-conjugated, 1.0 mg/mL in PBS, 20 min, compared to control. More on the design: species or system rabbit. An excerpt:
Conjunctival tissue from the ocular surface was targeted to test the binding affinity of the multiple peptides. Conjunctiva was harvested from rabbit eyes (Pel-Freez Biologicals, Rogers, Ariz.) with the underlying tenon's capsule removed, and then cut into 6 mm pieces with a biopsy punch. The conjunctival epithelium was kept intact for testing SABpep, while the epithelium was scrapped off with a cell scraper for testing type I collagen-binding peptide (ColBpep). The tissue pieces were merged in the biotin-conjugated peptide solutions (1.0 mg/mL in PBS, pH 7.4; Life Technologies, NY) for 20 minutes and then washed three times with PBS to remove any unbound peptides. A HABA (4′-hydroxyazobenzene-2-carboxylic acid) assay (Life Technologies, NY) was used to measure the amount of bound peptide (biotin), per manufacturer's instructions. An aqueous solution of biotin (1.0 mg/mL) without peptides was used as a negative control.

Series [1] relates to rabbit conjunctiva tissue sections (sialic acid on mucin-1; collagen type I). The conditions noted are these: for localisation of peptide staining on conjunctiva sections: biotin-conjugated peptide 1.0 mg/ml, compared with anti-mucin-1 / anti-collagen type I antibody. Here is the method:
To visualize binding of SABpep and ColBpep to the ocular surface, we performed immunohistochemistry with biotin-conjugated peptides on tissue section of rabbit conjunctiva. Conjunctival tissue dissected from rabbit eyes were fixed with 4% paraformaldehyde (PFA) solution (Electron Microscopy Sciences, Hatfield, Pa.), embedded and sectioned (thickness-5 μm) in paraffin. The sections were first incubated with biotin-conjugated peptides (1.0 mg/ml in PBS pH 7.4) for 1 h at room temperature, washed thrice with PBS and then stained with streptavidin-Texas Red conjugate (Vector Laboratories, CA) in accordance to manufacturer's protocol. The samples were then washed again three times, mounted with DAPI mounting medium (Vector Laboratories) and imaged with Zeiss Axio Imager 2 microscope (Carl Zeiss, Jena, Germany). Sections stained with only secondary antibody served as negative control. Mouse anti-mucin-1 primary antibody (Novus Biologicals, Littleton, Colo.) and mouse anti-collagen type I antibody (Abcam, Cambridge, Mass.) were used as replacements to SABpep and ColBpep in the positive controls, respectively, and stained with goat anti-mouse IgG secondary antibody (Life Technologies, NY).
To examine if SABpep binds specifically to sialic acid segment on the oligosaccharide chains, paraffin embedded and 4% PFA fixed rabbit conjunctiva tissue sections were stained with three different groups were selected (SABpep, sialidase treated+SABpep, SA+SABpep). Sections in the first group were stained with SABpep as described in the main text; sections in the second group were treated with sialidase (α2-3,6,8 Neuraminidase, 60 U/ml; New England Biolabs, Ipswich, Mass.) first for one hour at 37° C. before the addition of SABpep; and finally, sections in the third group were stained with SABpep pre-incubated with sialic acid (N-Acetylneuraminic acid, 100 mM; Carbosynth, Compton, Berkshire, UK) for one hour at room temperature. The staining procedure was the same in all three groups (streptavidin-fluorescein was used for detecting biotin conjugated SABpep; DAPI was used as counterstain for nuclei). The sections were imaged using Zeiss Axio Imager 2 microscope.

The subject of series [2] is Rabbit conjunctival primary epithelial cells. The series can be described thus: Live/dead staining and AlamarBlue cytotoxicity assessment. The series is classed as cell-based. The settings on record: 1.0 mg/ml, 24 h; data not shown. On the procedure: Rabbit conjunctival primary epithelial cells were isolated as described previously in the main text. Cells were seeded in 96 well microplates for AlamarBlue assays (Life Technologies, NY) and live/dead staining at a density of 10,000 cells/cm^2. Cells were allowed to grow to about 90% confluence before experiments were carried out. Three different concentrations of HA-FL were tested: 1.0 mg/ml, 100 μg/ml and 10 μg/ml. SABpep and ColBpep were added to the medium for 24 h with a concentration of 1.0 mg/ml. Calcein AM and ethidium homodimer-1 (EthD-1; Life Technologies, NY) were used as live/dead staining agents according manufacture's manual, and cells were imaged using Zeiss Axio Imager 2 microscope. AlamarBlue assay was performed with quadruplets for every group. After 2 h incubation, the absorbance values at 570 nm on a Synergy 2 microplate reader were recorded.
(The colour change of resazurin is a common sign of viable cells or microbes.)

As to SYIRIADTNIT [ColBpep], the entries for the “amount of peptide bound to conjunctiva tissue (normalized to the dry weight)” value in the series on conjunctiva tissue and in the series on conjunctiva tissue (listed as peptide 6) were “the most promising candidates” and “bound the most”, respectively. Moreover, the “localisation of peptide staining on conjunctiva sections” value in series [1] (1 h, listed as ColBpep-biotin) is reported as “binds to any collagen I on the tissue”. Also, the “cytotoxicity to epithelial cells” value in series [2] is reported as “little to no cytotoxicity”.

On to “GGSPYGRC (also: biotin, position not given here) [SABpep]”, for which the “amount of peptide bound to conjunctiva tissue (normalized to the dry weight)” value in the series with conjunctiva tissue is “the most promising candidates”; in the series with conjunctiva tissue (listed as peptide 3), “bound the most”. Besides, the “localisation of peptide staining on conjunctiva sections” value in series [1] (1 h, listed as SABpep-biotin) is “binds selectively to epithelial lining of conjunctiva”. Also, the “staining of epithelium after preincubation of peptide with sialic acid” value in series [1] (sialic acid 100 mM, 1 h, room temperature) is on record as “still stained the epithelium”. For the same sequence, in series [1] (sialidase 60 U/ml, 1 h at 37° C. before staining), the “binding to conjunctival epithelium after sialidase digestion of the section” value is given as “could not bind to conjunctival epithelium”. For the same sequence, in series [2], the “cytotoxicity to epithelial cells” value was “little to no cytotoxicity”.
